In paper PMC4564189, “A Genetic Selection for dinB Mutants Reveals an Interaction between DNA Polymerase IV and the Replicative Polymerase That Is Required for Translesion Synthesis” (PLoS Genetics, 2015):

Legend:
[1] = target: T1, Pol IV (E. coli DNA polymerase IV, DinB) (Escherichia coli, UniProt Q47155, T120P); assay: pre-steady-state single-nucleotide primer extension, […] gel assay; assay type: biochemical; conditions: apparent Kd for dNTP, kpol given as kcat, 200 nM DNA, 400 nM polymerase, 10 mM MgCl2, pH 7.5, 25°C
T1 construct: full-length, untagged as far as told, pET11a plasmid pRM112 (T7 promoter) and mutant derivatives, purified from E. coli; 351 residues

[2] = target: T2, Pol IV (E. coli DNA polymerase IV, DinB) (Escherichia coli, UniProt Q47155); assay: as above; assay type: biochemical; conditions: apparent Kd for dNTP, kpol given as kcat, 200 nM DNA, 400 nM polymerase, 10 mM MgCl2, pH 7.5, 25°C
T2 construct: full-length, untagged as far as told, pET11a plasmid pRM112 (T7 promoter) and mutant derivatives, purified from E. coli; 351 residues
T2 sequence (Q47155 1-351): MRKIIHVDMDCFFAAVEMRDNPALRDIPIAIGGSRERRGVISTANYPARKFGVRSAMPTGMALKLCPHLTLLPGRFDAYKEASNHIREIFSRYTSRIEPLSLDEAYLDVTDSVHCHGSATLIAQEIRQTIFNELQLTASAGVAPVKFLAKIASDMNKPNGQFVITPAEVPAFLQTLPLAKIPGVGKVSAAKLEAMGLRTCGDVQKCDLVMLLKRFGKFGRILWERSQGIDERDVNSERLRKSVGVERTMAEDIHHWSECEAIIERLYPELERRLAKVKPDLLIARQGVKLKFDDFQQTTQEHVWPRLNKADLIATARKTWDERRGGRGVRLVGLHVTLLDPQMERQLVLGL

[3] = target: Pol III core complex (Pol IIIαεθ) (E. coli) (UniProt P10443)
[4] = undamaged template 13/20G (opposite dG)
[5] = undamaged template 13/20A (opposite dA)

T1 sequence (Q47155 whole entry T120P): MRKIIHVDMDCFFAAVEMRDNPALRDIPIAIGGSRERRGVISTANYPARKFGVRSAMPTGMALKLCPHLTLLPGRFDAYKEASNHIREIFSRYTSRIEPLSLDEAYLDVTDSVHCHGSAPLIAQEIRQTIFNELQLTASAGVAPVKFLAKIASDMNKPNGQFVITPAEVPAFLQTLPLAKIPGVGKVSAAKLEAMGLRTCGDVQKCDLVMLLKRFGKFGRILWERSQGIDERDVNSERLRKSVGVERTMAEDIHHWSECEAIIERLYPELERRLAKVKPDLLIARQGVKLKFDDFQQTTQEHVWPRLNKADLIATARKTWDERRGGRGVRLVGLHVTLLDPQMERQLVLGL

## Nc1ncnc2c1ncn2[C@H]1C[C@H](O)[C@@H](COP(=O)(O)OP(=O)(O)OP(=O)(O)O)O1 [dATP]
[1]; template 13/20Sp (opposite abasic site), above highest dNTP tested (500 μM range)
  Kd: 460 ± 230 µM

## Nc1ccn([C@H]2C[C@H](O)[C@@H](COP(=O)(O)OP(=O)(O)OP(=O)(O)O)O2)c(=O)n1 [dCTP]
[2]; [4]
  Kd: > 300 µM
[1]; [4]
  Kd: 14 ± 3.3 µM

## Cc1cn([C@H]2C[C@H](O)[C@@H](COP(=O)(O)OP(=O)(O)OP(=O)(O)O)O2)c(=O)[nH]c1=O [dTTP]
[2]; [5]
  Kd: 207 ± 21 µM
[1]; [5]
  Kd: 39 ± 9 µM

B1: Pol IV catalytic domain (Pol IV^CD; residues 1–230) (domain or fragment)
chain: MRKIIHVDMDCFFAAVEMRDNPALRDIPIAIGGSRERRGVISTANYPARKFGVRSAMPTGMALKLCPHLTLLPGRFDAYKEASNHIREIFSRYTSRIEPLSLDEAYLDVTDSVHCHGSATLIAQEIRQTIFNELQLTASAGVAPVKFLAKIASDMNKPNGQFVITPAEVPAFLQTLPLAKIPGVGKVSAAKLEAMGLRTCGDVQKCDLVMLLKRFGKFGRILWERSQGID
[3]
  Pol III processivity in the single-molecule primer extension assay; 900 nM Pol IV^CD (180-fold molar excess) with 5 nM Pol IIIαεθ, β clamp and τ3δδ'ψχ clamp loader (of the processivity without Pol IV^CD): 0.5
